According to patent US12295970B2, “Imidazoquinoline compounds and prodrugs thereof” (UNIVERSITY OF KANSAS, priority 2019, dated 2025):

Assays:
Type in all cases: cell-based
[1] = system: canine peripheral blood mononuclear cells (cPBMCs); experiment: Cytokine production in canine PBMCs by ELISA (Example 2); conditions: ± SD, 20 μM, 29 hours, ELISA, triplicate
Procedure: The imidazoquinolines were further screened for cytokine production in canine peripheral blood mononuclear cells (cPBMCs). […] TNFα and IL-12 were chosen as they are typically seen in a Th-1 cytokine response.
Peripheral blood from a healthy canine donor was obtained with appropriate informed consent of the owner and under approved institutional guidelines. Blood (8 mL per tube) was drawn via sterile venipuncture into a BD Vacutainer cell preparation tube containing sodium heparin (BD Biosciences). PBMCs were isolated within one hour following procurement by density gradient centrifugation according to the manufacturer protocol and resuspended to 2.22×10^6 cells/mL in sterile RPMI 1640 medium with L-glutamine (Gibco) supplemented with 100 U/mL penicillin, 100 μg/mL streptomycin (Corning) and 10% (v/v) heat-inactivated Fetalgro (RMBIO). Corning 3917, 96-well tissue culture treated plates were seeded with the PBMC suspension (180 μL/well), 20 μL of the serially diluted TLR agonists were added in triplicate to yield the desired concentrations in a 1% (v/v) DMSO cell suspension. Cells were incubated at 37° C. in 5% CO2 for 9 hours (FIGS. 3A-3D) or 29 hours (Table 2) after which supernatants were removed and frozen at −80° C. Cytokine secretion levels were measured by ELISA (Duoset, R&D Systems) according to the manufacturer protocol. Samples and standards (n=3) were thawed and plated onto a Maxisorp flat-bottom, 384-well plate (Thermo Scientific) using a BioTek Precision XS pipetting system. Cytokine concentrations were determined by a hyperbolic or four-parameter logistic non-linear regression of the recombinant standards and subsequent interpolation using Graphpad Prism 7.0.

hTLR8 = target: T1, hTLR8 (Homo sapiens, UniProt Q9NR97); experiment: SEAP reporter assay for hTLR-8 activity (HEK-Blue hTLR8 cells); conditions: ± SD; hTLR8 transfected HEK-Blue cells, Null subtracted; three independent measurements; 12 hours; >100 = no activity observed at 100 μM; read-out: EC50 TLR8
T1 construct: host or cells: HEK293 (HEK-Blue hTLR8)
T1 sequence (Q9NR97 27-1041): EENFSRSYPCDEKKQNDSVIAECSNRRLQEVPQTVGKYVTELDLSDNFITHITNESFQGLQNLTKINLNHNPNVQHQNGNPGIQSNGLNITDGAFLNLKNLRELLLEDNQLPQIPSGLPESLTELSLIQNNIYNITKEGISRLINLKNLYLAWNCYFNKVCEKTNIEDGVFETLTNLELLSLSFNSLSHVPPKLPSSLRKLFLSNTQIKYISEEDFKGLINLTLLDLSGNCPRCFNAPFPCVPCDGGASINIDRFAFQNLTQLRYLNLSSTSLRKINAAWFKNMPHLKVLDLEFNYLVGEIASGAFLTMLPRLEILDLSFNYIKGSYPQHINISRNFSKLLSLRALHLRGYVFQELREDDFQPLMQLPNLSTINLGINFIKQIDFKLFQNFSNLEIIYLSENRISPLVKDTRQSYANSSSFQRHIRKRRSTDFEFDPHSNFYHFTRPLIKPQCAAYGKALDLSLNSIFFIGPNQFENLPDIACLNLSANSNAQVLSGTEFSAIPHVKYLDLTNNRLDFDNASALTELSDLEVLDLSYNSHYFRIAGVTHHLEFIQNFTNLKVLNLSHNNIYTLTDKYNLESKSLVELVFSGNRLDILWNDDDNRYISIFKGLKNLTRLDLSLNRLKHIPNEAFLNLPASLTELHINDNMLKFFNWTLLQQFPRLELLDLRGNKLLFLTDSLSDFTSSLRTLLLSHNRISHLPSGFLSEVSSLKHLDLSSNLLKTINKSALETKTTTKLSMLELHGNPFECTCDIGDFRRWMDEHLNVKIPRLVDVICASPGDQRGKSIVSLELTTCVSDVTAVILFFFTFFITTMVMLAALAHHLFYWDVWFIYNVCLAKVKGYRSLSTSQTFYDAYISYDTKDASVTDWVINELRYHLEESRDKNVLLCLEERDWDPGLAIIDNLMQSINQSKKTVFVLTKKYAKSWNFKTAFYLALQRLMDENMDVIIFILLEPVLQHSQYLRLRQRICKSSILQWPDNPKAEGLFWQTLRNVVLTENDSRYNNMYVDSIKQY
Procedure: (§1) TLR activation induces NF-κB production and subsequent SEAP secretion, which is measured using HEK-Detection media (InvivoGen) containing a colorimetric substrate for SEAP (UV-Vis, 637 nm).
(§2) The experiments followed manufacturer protocol as follows: SEAP levels were measured via absorbance at 637 nm using HEK-Blue Detection cell culture medium (InvivoGen), which contains a SEAP-specific colorimetric substrate. Compound stock solutions were first diluted in sterile DMSO at a concentration of 10 mM. Lower concentrations were prepared by serial dilution of the initial 10 mM stock samples into sterile DMSO and these solutions (22 μL) were subsequently diluted into sterile H2O (198 μL) using a BioTek Precision XS pipetting system. HEK-Blue hTLR7, HEK-Blue hTLR8, Null 1−k, and Null 1 cell suspensions in sterile HEK-Blue Detection medium were prepared at a density of 220,000 cells per mL. Clear bottom, 96-well tissue culture treated plates (Corning) were seeded with hTLR7 and Null 1−k or hTLR8 and Null 1 cell suspensions (180 μL/well), after which 20 μL of the various sample concentrations in 10% v/v DMSO/H2O were added (20 μL) in quadruplicate wells to yield the desired testing concentration in 1% v/v DMSO cell suspension. Plates were incubated at 37° C. and 5% CO2 in the dark. Absorbance measurements were taken at 637 nm at 12 hours, 4 replicates per concentration point, per cell line (hTLR7, hTLR8, Null 1−k, Null 1). Three independent measurements on different days were performed for each analog.
(§3) Corresponding well absorbance values for each concentration tested were averaged with respect to days tested, and the average relative NF-κB induction (UV-Vis, 637 nm) of the null cell lines (Null 1-k or Null 1) were subtracted from the respective average TLR expressing cell line (hTLR7 or hTLR8) absorbance averages. […] The three independent, normalized averages for each analog were then pooled, and the data was fit using the Hill-Slope model (GraphPad Prism v7.0) using the non-linear fit from the [Agonist] vs. response—Variable Slope (four parameters) with a hill slope constrained to less than 3.

hTLR7 = target: T2, hTLR7 (Homo sapiens, UniProt Q9NYK1); experiment: SEAP reporter assay for hTLR-7 activity (HEK-Blue hTLR7 cells); conditions: ± SD; hTLR7 transfected HEK-Blue cells, Null subtracted; three independent measurements; 12 hours; read-out: EC50 TLR7
T2 construct: host or cells: HEK293 (HEK-Blue hTLR7)
T2 sequence (Q9NYK1 27-1049): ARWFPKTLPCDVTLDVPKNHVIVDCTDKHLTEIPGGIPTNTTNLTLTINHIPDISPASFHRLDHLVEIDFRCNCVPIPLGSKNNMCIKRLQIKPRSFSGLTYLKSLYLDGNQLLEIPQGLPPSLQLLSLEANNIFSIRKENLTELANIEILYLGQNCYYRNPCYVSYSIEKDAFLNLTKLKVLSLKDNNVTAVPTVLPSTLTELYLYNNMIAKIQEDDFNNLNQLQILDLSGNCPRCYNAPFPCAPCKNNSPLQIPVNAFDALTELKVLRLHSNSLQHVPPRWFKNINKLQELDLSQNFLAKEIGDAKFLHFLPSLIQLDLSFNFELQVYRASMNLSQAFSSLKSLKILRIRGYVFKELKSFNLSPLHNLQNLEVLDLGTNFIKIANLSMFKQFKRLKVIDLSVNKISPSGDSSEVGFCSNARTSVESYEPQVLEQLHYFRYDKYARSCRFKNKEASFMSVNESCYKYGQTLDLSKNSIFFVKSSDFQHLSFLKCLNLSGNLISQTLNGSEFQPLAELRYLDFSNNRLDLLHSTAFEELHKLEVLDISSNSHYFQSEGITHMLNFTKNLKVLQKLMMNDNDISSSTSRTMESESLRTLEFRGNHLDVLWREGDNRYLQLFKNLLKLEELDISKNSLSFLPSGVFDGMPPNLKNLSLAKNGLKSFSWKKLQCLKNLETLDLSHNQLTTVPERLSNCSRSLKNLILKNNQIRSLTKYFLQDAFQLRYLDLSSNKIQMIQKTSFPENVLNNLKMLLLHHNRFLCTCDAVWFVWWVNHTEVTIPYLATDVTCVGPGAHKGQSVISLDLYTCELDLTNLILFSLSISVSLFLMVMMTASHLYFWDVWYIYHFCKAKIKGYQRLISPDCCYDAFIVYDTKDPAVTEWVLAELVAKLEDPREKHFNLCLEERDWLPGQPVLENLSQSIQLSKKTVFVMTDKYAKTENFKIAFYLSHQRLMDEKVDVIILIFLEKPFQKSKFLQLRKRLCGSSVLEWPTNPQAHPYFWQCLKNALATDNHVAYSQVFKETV
Procedure: as §1, §2, §3

human TLR7 (hTLR7) = target: T3, human TLR7 (hTLR7) (Homo sapiens, UniProt Q9NYK1); experiment: In vitro TLR7 activity assay (HEK-Blue hTLR7, QUANTI-Blue, Example 3); conditions: 16 h incubation; Null 1-k subtracted
T3 construct: host or cells: HEK-293 (HEK-Blue hTLR7)
T3 sequence (Q9NYK1 27-1049): T2 sequence (Q9NYK1 27-1049)
Procedure: TLR agonist activity was measured in a dose-response study using reporter cell lines expressing the human TLR7 (hTLR7). […] The hTLR7 activity of R848-Toco, the formulation and its components were assessed using HEK-293 cells co-transfected with the hTLR7 gene and an inducible SEAP reporter gene along with the corresponding null control line (HEK-Blue™ hTLR7 and Null-1k cells, Invivogen). Cells were maintained in DMEM media with selective antibiotics according to the manufacturer protocol.^26 HEK-Blue™ cells were seeded into 96 well plates at a density of 220,000 cells/mL with 180 μL/well of culture medium. Stock solutions in DMSO were first serially diluted to seven concentrations (DMSO solutions further diluted into H2O). Each well was stimulated with 20 μL of agonists or agonist-free controls (equivalent concentration of HA-Toco, D-α-Tocopherol succinate, PBS or […] DMSO) at the determined final concentrations in 5 replicates. After 16 h of incubation at 37° C. in a 5% CO2 atmosphere, 20 μL of the supernatant from each well was sampled and spiked into 180 μL of QUANTI-Blue™ solution followed by incubation for 1 h at 37° C. Relative hTLR7 activity was then analyzed by UV-Vis at 637 nm using a microplate UV reader (SpectraMAX GeminiXS, Molecular Devices, San Jose, CA, USA). For each compound and concentration, a corresponding sample was applied to the HEK-Blue™ Null-1k cell line. The TLR7 agonist activity was determined after averaging across hTLR7 replications and subtracting the averaged Null response.
Activation levels were calculated as the difference between the average readings of the hTLR7 cell line and the Null 1-k cell line, to account for non-hTLR7 related induction of NF-κB. […] Therefore, this study confirmed that R848-Toco, formulated with HA-Toco as an emulsion, maintained its TLR agonist activity. […]

EC50 (hTLR8) [µM] | EC50 (hTLR7) [µM] | SMILES | Cytokine IFNg [1] [pg/mL] | Cytokine IL-2 [1] [pg/mL] | Cytokine IL-6 [1] [pg/mL] | Cytokine IL-10 [1] [pg/mL] | Cytokine IL-12 [1] [pg/mL] | Cytokine TNFa [1] [pg/mL] | hTLR7 activation (NF-κB, in words) (human TLR7 (hTLR7))
> 100 | 0.3 ± 0.02 | CCCCc1nc2c(N)nc3cc(Cl)ccc3c2n1CC(C)C [Compound 6, 4-Amino-2-butyl-7-chloro-1-(2-methylpropyl)-1H-imidazo[4,5-c]quinoline] | 7 ± 1 | 63 ± 44 | 240 ± 67 | 14 ± 4 | 760 ± 50 | 91 ± 20 | –
> 100 | 0.91 ± 0.09 | CCOCc1nc2c(N)nc3cc(Cl)ccc3c2n1CC(C)C [Compound 7, 4-Amino-7-chloro-2-(ethoxymethyl)-1-(2-methylpropyl)-1H-imidazo[4,5-c]quinoline] | 5 ± 5 | 50 ± 22 | 280 ± 81 | 20 ± 1 | 781 ± 40 | 114 ± 25 | –
> 100 | 6.8 ± 0.7 | CCOCc1nc2c(N)nc3cc(C#N)ccc3c2n1CC(C)C [Compound 11, 4-Amino-7-carbonitrile-2-(ethoxymethyl)-1-(2-methylpropyl)-1H-imidazo[4,5-c]quinoline] | 4 ± 3 | 57 ± 14 | 71 ± 20 | 6 ± 2 | 190 ± 62 | 7 ± 1 | –
> 100 | 0.11 ± 0.01 | CCCCc1nc2c(N)nc3cc(OC)ccc3c2n1CC(C)C [Compound 4, 4-Amino-2-butyl-7-methoxy-1-(2-methylpropyl)-1H-imidazo[4,5-c]quinoline] | 0 | 30 ± 29 | 500 ± 140 | 37 ± 13 | 746 ± 130 | 49 ± 9 | –
– | – | Cc1c(C)c2c(c(C)c1OC(=O)CCC(=O)O)CC[C@@](C)(CCC[C@H](C)CCC[C@H](C)CCCC(C)C)O2 [Toco-succinate, (+)-α-tocopherol succinate] | – | – | – | – | – | – | did not induce any significant activation
